{
  "source": "patent US20240009246A1",
  "about": "“CELLULAR-ANTIMICROBIAL COMBINATION COMPOSITION AND METHODS FOR TREATMENT OF BACTERIAL INFECTIONS OF JOINTS AND SOFT TISSUES” (priority 2021, published 2024)",
  "key": {"[1]": {"test": "in vitro cytotoxic activity of antibiotics against dog synoviocytes", "assay_type": "cell-based", "source_text": "(§1) Table 1 and 2 represent in vitro evaluation of the cytotoxic activity of different conventional antibiotics, as assessed for toxicity against dog cells (Table 1) or horse cells (Table 2). Similar toxicity profiles would also be anticipated for human cells. The antibiotics with the highest IC50 values are considered non-cytotoxic, while those with lower values are considered more cytotoxic, and unsuitable for co-administration with activated MSC or activated iMSCs."}, "Chondrocytes [2]": {"tested_on": "Chondrocytes", "test": "in vitro cytotoxic activity of antibiotics against horse chondrocytes", "assay_type": "cell-based", "details": "for IC50: Equus caballus, Chondrocyte, read-out: Concentration (equine IC50)", "source_text": "(§2) Table 1 and 2 represent in vitro evaluation of the cytotoxic activity of different conventional antibiotics, as assessed for toxicity against dog cells (Table 1) or horse cells (Table 2). Similar toxicity profiles would also be anticipated for human cells.\n(§3) The antibiotics with the highest IC50 values are considered non-cytotoxic, while those with lower values are considered more cytotoxic, and unsuitable for co-administration with activated MSC or activated iMSCs. For example, amikacin and enrofloxacin are more cytotoxic to joint cells (e.g. synovial cells and chondrocytes) than vancomycin, and should not be used for preparing the antibiotic plus activated MSCs formulations of uses herein, whereas vancomycin is one of the preferred antibiotics for these formulations for treating gram+ infections.\n(§4) Table 2 represents and overview of equine IC50s of certain antibiotics of use herein"}, "CHONDROCYTES [3]": {"tested_on": "CHONDROCYTES", "test": "in vitro cytotoxic activity of antibiotics against dog chondrocytes", "assay_type": "cell-based", "parameters": "IC50 (cytotoxicity): unit not given beside the values", "source_text": "as §1"}, "Synovial Cells": {"tested_on": "Synovial Cells", "test": "in vitro cytotoxic activity of antibiotics against horse synovial cells", "assay_type": "cell-based", "details": "for IC50: Equus caballus, Synovial cell, read-out: Concentration (equine IC50)", "source_text": "as §2, §3, §4"}, "[4]": {"test": "in vitro cytotoxic activity of antibiotics against dog chondrocytes", "assay_type": "cell-based", "parameters": "IC50 (cytotoxicity): unit not given beside the values", "source_text": "as §1"}, "[5]": {"tested_on": "MRSA strain of Staphylococcus aureus", "test": "equine model of septic arthritis (joint infected with MRSA), intra-articular treatment", "excerpt": "In one example, a model of septic arthritis was studied. […] Certain objectives of this study were to determine if intra-articular (IA) administration of TLR activated MSCs (e.g. bone marrow derived MSCs) improve clinical outcomes and reduce bacterial burden and biomarkers of joint inflammation in an equine model of septic arthritis compared to conventional antimicrobial therapy alone. It was hypothesized that activated MSC therapy in combination with conventional antibiotic therapy could improve resolution of septic arthritis as assessed by lameness evaluation, joint circumference, imaging, and more rapid resolution of bacterial infection and inflammatory biomarkers.\nIn this example, four horses, each experimentally infected in one joint with MRSA strain of Staphylococcus aureus in one joint were set up for the study. Treatment started 24 h after introduction of the infective agent, two antibiotic only (control); two in TLR3 MSC plus antibiotic. All horses were treated with vancomycin (e.g. 100 mg) injected directly into the joint. The control 2 horses were just treated with vancomycin. The experimental 2 horses were (TLR MSC horses) were also treated with activated equine allogeneic MSC (e.g. 2×10^6) injected into joint immediately after vancomycin. These treatments were repeated three times at 3-day intervals for MSC horse, only twice for control horse (euthanized on day 7). The treatment responses were evaluated by cultured synovial fluid from joints (bacti counts, cell counts) and joint circumference and swelling. […] The experimental horses receiving the combined treatment were euthanized on day 14 to assess joint parameters and bacterial counts.\nSynovial fluid was collected from each horse in the study, at the indicated time points, starting the day before infection (DO) and continuing until day 7. Control horses treated with vancomycin injections into the joint only, while TLR-MSC horse was treated with both activated MSC and vancomycin, both injected into the joint. The vancomycin dose was 100 mg per injection, while the dose of TLR3 activated MSC was 2×10^6 cells per injection, consisting of activated, allogeneic MSC obtained from bone marrow of unrelated healthy horses.\nSynovial fluid samples from the two horses described in FIGS. 1A and 1B were also evaluated for their concentration of live MRSA bacteria. Collected samples were processed to disaggregate the bacteria in the synovial fluid, then the sample was serially diluted in PBS and then plated on quadrant plates with LB agar.\nSkeletally mature horses, (male Quarter Horses, 3 years of age), deemed healthy by physical examination, bloodwork (complete blood count, serum biochemical panel), and without evidence of tarsal osteoarthritis determined radiographically were treatment recipients."}},
  "note": "Where two headings read alike, the source gives them in different places.",
  "data": [
    {"molecule": "CCN1CCN(c2cc3c(cc2F)c(=O)c(C(=O)O)cn3C2CC2)CC1", "note": "[Enrofloxacin]", "values": [
      {"measurement": "IC50", "setting": "[1]; dog", "value": 1250, "unit": "µg/mL"},
      {"measurement": "IC50", "setting": "Chondrocytes [2]; equine chondrocytes", "value": 4590, "unit": "µg/mL"},
      {"measurement": "IC50 (cytotoxicity)", "setting": "CHONDROCYTES [3]", "value": ".078< × <1.56"}
    ]},
    {"molecule": "CO/N=C(\\C(=O)N[C@@H]1C(=O)N2C(C(=O)O)=C(CSC(=O)c3ccco3)CS[C@H]12)c1csc(N)n1", "note": "[Ceftiofur Sodium]", "values": [
      {"measurement": "IC50", "setting": "Chondrocytes [2]; equine chondrocytes", "value": 4270, "unit": "µg/mL"},
      {"measurement": "IC50", "setting": "Synovial Cells; equine synovial cells", "value": "> 25000", "unit": "µg/mL"}
    ]},
    {"molecule": "Ampicillin sulbactam", "values": [
      {"measurement": "Concentration (equine IC50)", "setting": "Chondrocytes [2]; equine chondrocytes", "value": ">25000", "unit": "µg/mL"},
      {"measurement": "Concentration (equine IC50)", "setting": "Synovial Cells; equine synovial cells", "value": ">25000", "unit": "µg/mL"}
    ]},
    {"molecule": "CC1(C)S[C@@H]2[C@H](NC(=O)Cc3ccccc3)C(=O)N2[C@H]1C(=O)[O-].[K+]", "note": "[Potassium penicillin]", "values": [
      {"measurement": "Concentration (equine IC50)", "setting": "Chondrocytes [2]; equine chondrocytes", "value": 11610, "unit": "µg/mL"}
    ]},
    {"molecule": "CC(C)(O/N=C(\\C(=O)N[C@@H]1C(=O)N2C(C(=O)[O-])=C(C[n+]3ccccc3)CS[C@H]12)c1csc(N)n1)C(=O)O", "note": "[Ceftazidime]", "values": [
      {"measurement": "IC50", "setting": "[1]; dog", "value": 1620, "unit": "µg/mL"},
      {"measurement": "IC50", "setting": "Chondrocytes [2]; equine chondrocytes", "value": 3590, "unit": "µg/mL"},
      {"measurement": "IC50", "setting": "[4]; dog", "value": 3160, "unit": "µg/mL"},
      {"measurement": "IC50", "setting": "Synovial Cells; equine synovial cells", "value": 3360, "unit": "µg/mL"}
    ]},
    {"molecule": "NCC[C@H](O)C(=O)N[C@@H]1C[C@H](N)[C@@H](O[C@H]2O[C@H](CN)[C@@H](O)[C@H](O)[C@H]2O)[C@H](O)[C@H]1O[C@H]1O[C@H](CO)[C@@H](O)[C@H](N)[C@H]1O", "note": "[Amikacin]", "values": [
      {"measurement": "IC50", "setting": "[1]; dog", "value": 2260, "unit": "µg/mL"},
      {"measurement": "IC50", "setting": "Chondrocytes [2]; equine chondrocytes", "value": "< 390", "unit": "µg/mL"},
      {"measurement": "IC50", "setting": "[4]; dog", "value": 2740, "unit": "µg/mL"},
      {"measurement": "IC50", "setting": "Synovial Cells; equine synovial cells", "value": 799, "unit": "µg/mL"}
    ]},
    {"molecule": "CN[C@H](CC(C)C)C(=O)N[C@H]1C(=O)N[C@@H](CC(N)=O)C(=O)N[C@H]2C(=O)N[C@H]3C(=O)N[C@H](C(=O)N[C@H](C(=O)O)c4cc(O)cc(O)c4-c4cc3ccc4O)[C@H](O)c3ccc(c(Cl)c3)Oc3cc2cc(c3O[C@@H]2O[C@H](CO)[C@@H](O)[C@H](O)[C@H]2O[C@H]2C[C@](C)(N)[C@H](O)[C@H](C)O2)Oc2ccc(cc2Cl)[C@H]1O", "note": "[Vancomycin]", "values": [
      {"measurement": "IC50", "setting": "[1]; dog synoviocytes, read-out: IC50 (cytotoxicity)", "value": 13800, "unit": "µg/mL"},
      {"measurement": "IC50", "setting": "Chondrocytes [2]", "value": 7310, "unit": "µg/mL"},
      {"measurement": "IC50", "setting": "[4]; dog chondrocytes, read-out: IC50 (cytotoxicity)", "value": 8640, "unit": "µg/mL"},
      {"measurement": "overall outcome of joint infection", "setting": "[5]; control euthanized day 7, combined treatment day 14", "value": "uncontrolled joint infection"},
      {"measurement": "circumference of the infected tarsocrural joint (effusion)", "setting": "[5]; infected joint vs uninfected joint", "value": "remained very swollen"},
      {"measurement": "body temperature (fever) course", "setting": "[5]; over time after MRSA joint infection", "value": "body temperature spikes were noted at two time points"},
      {"measurement": "body temperature in peaks", "setting": "[5]; spikes", "value": "around 102 ° F."},
      {"measurement": "IC50", "setting": "Synovial Cells", "value": 7810, "unit": "µg/mL"}
    ]},
    {"molecule": "CC1(C)S[C@@H]2[C@H](NC(=O)[C@H](N)c3ccc(O)cc3)C(=O)N2[C@H]1C(=O)O", "note": "[Amoxicillin]", "values": [
      {"measurement": "IC50", "setting": "Chondrocytes [2]; equine chondrocytes", "value": 14000, "unit": "µg/mL"},
      {"measurement": "IC50", "setting": "Synovial Cells; equine synovial cells", "value": "> 25000", "unit": "µg/mL"}
    ]},
    {"molecule": "CS(=O)(=O)c1ccc([C@@H](O)[C@@H](CF)NC(=O)C(Cl)Cl)cc1", "note": "[Florfenicol]", "values": [
      {"measurement": "IC50", "setting": "Chondrocytes [2]; equine chondrocytes", "value": 2190, "unit": "µg/mL"},
      {"measurement": "IC50", "setting": "Synovial Cells; equine synovial cells", "value": 2960, "unit": "µg/mL"}
    ]},
    {"molecule": "Neomycin", "values": [
      {"measurement": "Concentration (equine IC50)", "setting": "Chondrocytes [2]; equine chondrocytes", "value": 821.9, "unit": "µg/mL"},
      {"measurement": "Concentration (equine IC50)", "setting": "Synovial Cells; equine synovial cells", "value": 6274, "unit": "µg/mL"}
    ]},
    {"molecule": "C[C@@H](O)[C@H]1C(=O)N2C(C(=O)O)=C(SCCN=CN)C[C@H]12", "note": "[Imipenem]", "values": [
      {"measurement": "IC50", "setting": "Chondrocytes [2]; equine chondrocytes", "value": "> 25000", "unit": "µg/mL"},
      {"measurement": "IC50", "setting": "Synovial Cells; equine synovial cells", "value": "> 25000", "unit": "µg/mL"}
    ]},
    {"molecule": "NC[C@H]1O[C@H](O[C@H]2[C@H](O)[C@@H](O[C@H]3O[C@H](CO)[C@@H](O)[C@H](N)[C@H]3O)[C@H](N)C[C@@H]2N)[C@H](N)C[C@@H]1O", "note": "[Tobramycin]", "values": [
      {"measurement": "IC50", "setting": "Chondrocytes [2]; equine chondrocytes", "value": "> 25000", "unit": "µg/mL"},
      {"measurement": "IC50", "setting": "Synovial Cells; equine synovial cells", "value": 9490, "unit": "µg/mL"}
    ]},
    {"molecule": "Cc1nnc(SCC2=C(C(=O)O)N3C(=O)[C@@H](NC(=O)Cn4cnnn4)[C@H]3SC2)s1", "note": "[Cefazolin]", "values": [
      {"measurement": "IC50", "setting": "[1]; dog", "value": 1480, "unit": "µg/mL"},
      {"measurement": "IC50", "setting": "Chondrocytes [2]; equine chondrocytes", "value": 3950, "unit": "µg/mL"},
      {"measurement": "IC50", "setting": "[4]; dog", "value": 1670, "unit": "µg/mL"},
      {"measurement": "IC50", "setting": "Synovial Cells; equine synovial cells", "value": 1160, "unit": "µg/mL"}
    ]},
    {"molecule": "Gentamicin", "values": [
      {"measurement": "Concentration (equine IC50)", "setting": "Chondrocytes [2]; equine chondrocytes", "value": 708.3, "unit": "µg/mL"},
      {"measurement": "Concentration (equine IC50)", "setting": "Synovial Cells; equine synovial cells", "value": 512.5, "unit": "µg/mL"}
    ]},
    {"molecule": "C[C@H]1c2cccc(O)c2C(=O)C2=C(O)[C@]3(O)C(=O)C(C(N)=O)=C(O)[C@@H](N(C)C)[C@@H]3[C@@H](O)[C@@H]21", "note": "[Doxycycline]", "values": [
      {"measurement": "IC50", "setting": "Chondrocytes [2]; equine chondrocytes", "value": 1030, "unit": "µg/mL"},
      {"measurement": "IC50", "setting": "Synovial Cells; equine synovial cells", "value": 711, "unit": "µg/mL"}
    ]}
  ]
}
